Test results taken from patent US11840686B2, “Modulation of prekallikrein (PKK) expression” (Ionis Pharmaceuticals, Inc., priority 2013, dated 2023).
Strand notation (5' to 3'): a small letter for the sugar, then the base; units joined by * are phosphorothioate-linked, units joined directly phosphodiester-linked; [ ] holds rarer units or linkages, { } end groups; capitals alone tell only the bases. e = 2'-O-(2-methoxyethyl) (MOE); [5mC] = 5-methylcytosine; d = 2'-deoxy (DNA)

Tested on: human PKK mRNA
Assay: Antisense inhibition of human PKK mRNA in HepaRG cells, 5,000 nM (Example 2)
Format: cell-based
Details: electroporation with 5,000 nM antisense oligonucleotide, approx. 24 hours, PKK mRNA by RT-PCR (RTS3454), relative to untreated control cells
Procedure, shortened: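 HepaRG cells (20,000/well) electroporated with 5,000 nM MOE gapmer (phosphorothioate backbone, 5-methylcytosines) and harvested after ~24 h. PKK mRNA measured by qRT-PCR with primer probe set RTS3454, normalized to RIBOGREEN total RNA; percent inhibition versus untreated cells.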

[1] = Table 9 experiment, HepaRG cells, 20,000 cells per well
[2] = Table 10 experiment, HepaRG cells, 20,000 cells per well

Substance | % inhibition (Table 8, HepaRG cells) [%] | % inhibition [1] [%] | % inhibition [2] [%]
546293 (antisense eG*e[5mC]*e[5mC]*eT*e[5mC]*dT*dG*dA*dG*d[5mC]*dT*dG*dT*d[5mC]*dA*eG*e[5mC]*eT*eT*e[5mC]) [compound 546293] | 64 |  | 
546294 (antisense eG*eT*e[5mC]*e[5mC]*eT*dA*dT*dG*dA*dG*dT*dG*dA*d[5mC]*d[5mC]*e[5mC]*eT*e[5mC]*e[5mC]*eA) [compound 546294] | 72 |  | 
546295 (antisense e[5mC]*e[5mC]*e[5mC]*eA*e[5mC]*dT*dG*dG*dT*dG*dT*d[5mC]*d[5mC]*dT*dA*eT*eG*eA*eG*eT) [compound 546295] | 67 |  | 
546296 (antisense eG*eA*eA*eG*e[5mC]*d[5mC]*d[5mC]*dA*dT*d[5mC]*dA*dA*dA*dG*d[5mC]*eA*eG*eT*eG*eG) [compound 546296] | 27 |  | 
546297 (antisense eT*eA*eT*eA*eG*dA*dT*dG*d[5mC]*dG*d[5mC]*d[5mC]*dA*dA*dA*e[5mC]*eA*eT*e[5mC]*e[5mC]) [compound 546297] | 82 |  | 
546299 (antisense eA*eT*eG*e[5mC]*e[5mC]*dA*d[5mC]*dT*dA*dT*dA*dG*dA*dT*dG*e[5mC]*eG*e[5mC]*e[5mC]*eA) [compound 546299] | 84 |  | 
546300 (antisense eT*eA*eA*eT*eG*dT*d[5mC]*dT*dG*dA*d[5mC]*dA*dG*dA*dT*eT*eT*eA*eA*eA) [compound 546300] | 58 |  | 
546302 (antisense eT*eG*eA*eG*eA*dA*dA*dG*dG*dT*dG*dT*dA*dT*d[5mC]*eT*eT*eT*eT*eG) [compound 546302] | 87 |  | 
546303 (antisense eT*eT*eT*eG*eT*dG*dA*dG*dA*dA*dA*dG*dG*dT*dG*eT*eA*eT*e[5mC]*eT) [compound 546303] | 77 |  | 
546306 (antisense eT*eT*eT*eG*eG*dT*dG*dA*dA*dT*dA*dA*dT*dA*dA*eT*e[5mC]*eT*e[5mC]*eT) [compound 546306] |  | 65 | 71
546307 (antisense eT*eA*eT*eA*eG*dT*dT*dT*dT*dG*dG*dT*dG*dA*dA*eT*eA*eA*eT*eA) [compound 546307] |  | 12 | 0
546308 (antisense eA*e[5mC]*eT*eT*eT*dA*dT*dA*dG*dT*dT*dT*dT*dG*dG*eT*eG*eA*eA*eT) [compound 546308] |  | 57 | 43
546309 (antisense e[5mC]*e[5mC]*e[5mC]*eT*eT*d[5mC]*dT*dG*dA*dG*dA*d[5mC]*dT*dT*dT*eA*eT*eA*eG*eT) [compound 546309] |  | 88 | 81
546311 (antisense e[5mC]*eA*eT*eG*eA*dT*dT*d[5mC]*d[5mC]*d[5mC]*dT*dT*d[5mC]*dT*dG*eA*eG*eA*e[5mC]*eT) [compound 546311] |  | 79 | 76
546313 (antisense eG*eG*e[5mC]*eG*eA*dT*dA*dT*d[5mC]*dA*dT*dG*dA*dT*dT*e[5mC]*e[5mC]*e[5mC]*eT*eT) [compound 546313] |  | 60 | 75
546316 (antisense eG*e[5mC]*e[5mC]*eT*eG*dG*dA*dG*dT*dT*dT*dT*dA*dT*d[5mC]*eA*eA*eG*eG*e[5mC]) [compound 546316] |  | 51 | 60
546317 (antisense eA*eG*eG*eA*eG*d[5mC]*d[5mC]*dT*dG*dG*dA*dG*dT*dT*dT*eT*eA*eT*e[5mC]*eA) [compound 546317] |  | 12 | 31
546318 (antisense eA*eT*eT*e[5mC]*eA*dA*dA*dG*dG*dA*dG*d[5mC]*d[5mC]*dT*dG*eG*eA*eG*eT*eT) [compound 546318] |  | 47 | 46
546319 (antisense e[5mC]*eA*eG*eT*eG*dT*dA*dA*dT*dT*d[5mC]*dA*dA*dA*dG*eG*eA*eG*e[5mC]*e[5mC]) [compound 546319] |  | 50 | 61
546320 (antisense eG*eG*eT*eA*eG*dG*d[5mC]*dA*dT*dA*dT*dT*dG*dG*dT*eT*eT*eT*eT*eG) [compound 546320] |  | 72 | 69
546321 (antisense eG*eA*eA*eG*eG*dT*dA*dG*dG*d[5mC]*dA*dT*dA*dT*dT*eG*eG*eT*eT*eT) [compound 546321] |  | 53 | 56

Substance | % inhibition (Table 8, HepaRG cells) [%] | % inhibition [1] [%] | % inhibition [2] [%]
546322 (antisense e[5mC]*eT*eT*eG*eT*dG*dT*d[5mC]*dA*d[5mC]*d[5mC]*dT*dT*dT*dG*eG*eA*eA*eG*eG) [compound 546322] |  | 74 | 68
546323 (antisense eG*eT*eG*e[5mC]*eT*dT*dG*dT*dG*dT*d[5mC]*dA*d[5mC]*d[5mC]*dT*eT*eT*eG*eG*eA) [compound 546323] |  | 94 | 80
546324 (antisense eG*eG*eT*eA*eT*dA*dA*dA*dT*dT*dG*dT*dG*d[5mC]*dT*eT*eG*eT*eG*eT) [compound 546324] |  | 73 | 82
546325 (antisense e[5mC]*eA*eG*eT*eT*dG*dG*dT*dA*dT*dA*dA*dA*dT*dT*eG*eT*eG*e[5mC]*eT) [compound 546325] |  | 74 | 79
546326 (antisense e[5mC]*e[5mC]*e[5mC]*eA*eA*d[5mC]*dA*dG*dT*dT*dG*dG*dT*dA*dT*eA*eA*eA*eT*eT) [compound 546326] |  | 62 | 64
546327 (antisense eG*eG*eT*eT*eA*d[5mC]*d[5mC]*d[5mC]*dA*dA*d[5mC]*dA*dG*dT*dT*eG*eG*eT*eA*eT) [compound 546327] |  | 95 | 84
546328 (antisense eG*eA*eA*eG*e[5mC]*d[5mC]*d[5mC]*d[5mC]*dA*dT*d[5mC]*d[5mC]*dG*dG*dT*eT*eA*e[5mC]*e[5mC]*e[5mC]) [compound 546328] |  | 84 | 81
546329 (antisense e[5mC]*e[5mC]*eT*eT*e[5mC]*dG*dA*dG*dA*dA*dG*d[5mC]*d[5mC]*d[5mC]*d[5mC]*eA*eT*e[5mC]*e[5mC]*eG) [compound 546329] |  | 18 | 8
546330 (antisense eT*eT*eT*e[5mC]*eT*d[5mC]*d[5mC]*dT*dT*d[5mC]*dG*dA*dG*dA*dA*eG*e[5mC]*e[5mC]*e[5mC]*e[5mC]) [compound 546330] |  | 55 | 67
546331 (antisense eT*eT*e[5mC]*eA*e[5mC]*d[5mC]*dT*dT*dT*d[5mC]*dT*d[5mC]*d[5mC]*dT*dT*e[5mC]*eG*eA*eG*eA) [compound 546331] |  | 59 | 44
546336 (antisense eT*e[5mC]*eA*eT*eT*dT*dG*dT*dT*dA*d[5mC]*d[5mC]*dA*dA*dA*eG*eG*eA*eA*eT) [compound 546336] |  | 66 | 73
546339 (antisense e[5mC]*eT*eT*eG*eA*dT*dA*dT*d[5mC]*dT*dT*dT*dT*d[5mC]*dT*eG*eG*e[5mC]*eA*eT) [compound 546339] |  | 65 | 64
546340 (antisense eT*eA*eA*eT*e[5mC]*dT*dT*dG*dA*dT*dA*dT*d[5mC]*dT*dT*eT*eT*e[5mC]*eT*eG) [compound 546340] |  | 30 | 56
546345 (antisense e[5mC]*eA*eA*eG*e[5mC]*dA*dT*d[5mC]*dT*dT*dT*dT*d[5mC]*d[5mC]*d[5mC]*e[5mC]*e[5mC]*eT*eT*e[5mC]) [compound 546345] |  | 86 | 80
546346 (antisense eA*eG*eG*eG*eA*d[5mC]*d[5mC]*dA*d[5mC]*d[5mC]*dT*dG*dA*dA*dT*e[5mC]*eT*e[5mC]*e[5mC]*e[5mC]) [compound 546346] |  | 83 | 70
546347 (antisense eA*e[5mC]*eT*eA*eA*dG*dG*dG*dA*d[5mC]*d[5mC]*dA*d[5mC]*d[5mC]*dT*eG*eA*eA*eT*e[5mC]) [compound 546347] |  | 28 | 22
546348 (antisense eG*e[5mC]*eA*eA*eA*d[5mC]*dT*dA*dA*dG*dG*dG*dA*d[5mC]*d[5mC]*eA*e[5mC]*e[5mC]*eT*eG) [compound 546348] |  | 79 | 76
546349 (antisense eG*eT*eG*eT*eT*dT*dG*d[5mC]*dA*dA*dA*d[5mC]*dT*dA*dA*eG*eG*eG*eA*e[5mC]) [compound 546349] |  | 48 | 35
546350 (antisense e[5mC]*e[5mC]*e[5mC]*eT*eG*d[5mC]*dG*dG*dG*d[5mC]*dA*d[5mC]*dA*dG*d[5mC]*e[5mC]*eT*eT*e[5mC]*eA) [compound 546350] |  | 88 | 74
546351 (antisense eT*eT*eG*e[5mC]*eT*d[5mC]*d[5mC]*d[5mC]*dT*dG*d[5mC]*dG*dG*dG*d[5mC]*eA*e[5mC]*eA*eG*e[5mC]) [compound 546351] |  | 82 | 60
546352 (antisense e[5mC]*eA*e[5mC]*e[5mC]*eA*dG*dG*dT*dT*dG*d[5mC]*dT*d[5mC]*d[5mC]*d[5mC]*eT*eG*e[5mC]*eG*eG) [compound 546352] |  | 75 | 74
